Reference: ChEMBL document CHEMBL2151026, “Comparative study on antioxidant capacity of flavonoids and their inhibitory effects on oleic acid-induced hepatic steatosis in vitro” (Eur J Med Chem, 2011)
Activity calls are given as the source filed them. The rule behind the calls is not given here.

Key:
HepG2 [1] = test: Antioxidant activity in human HepG2 cells assessed as reduction of oleic acid-induced ROS generation incubated for 24 hrs by DHCF-DA based fluorimetric assay relative to untreated control; assay type: functional; conditions: for IC30: Homo sapiens, HepG2, 24 h
[2] = Reducing activity assessed as chlorogenic acid equivalent per mmol standard at 37 degC for 30 mins by Folin-Ciocalteu reagent assay
[3] = Reducing activity by cyclic voltammetry
HepG2 [4] = test: Inhibition of oleic acid-induced triglyceride over-accumulation in human HepG2 cells incubated for 24 hrs relative to untreated control; assay type: functional; conditions: for IC30: Homo sapiens, HepG2, 24 h
HepG2 [5] = test: Cytotoxicity against human HepG2 cells incubated for 24 hrs by MTT assay; assay type: cell-based; conditions: hepg2, 24 h
HepG2 [6] = test: Proxidant activity in human HepG2 cells assessed as increase in oleic acid-induced ROS generation at >10 uM incubated for 24 hrs by […] based fluorimetric assay relative to untreated control; assay type: cell-based; conditions: hepg2, 24 h
HepG2 [7] = test: Proxidant activity in human HepG2 cells assessed as increase in oleic acid-induced ROS generation at >25 uM incubated for 24 hrs by […] based fluorimetric assay relative to untreated control; assay type: cell-based; conditions: hepg2, 24 h

SMILES | Imax (HepG2 [1]) | IC30 (HepG2 [1]) | Activity [2] | Activity [3] | Imax (HepG2 [4]) | IC30 (HepG2 [4]) | Activity (HepG2 [5]) | Activity (HepG2 [6]) | Activity (HepG2 [7]) | inhibition (HepG2 [1])
O=C1c2c(O)cc(O)cc2O[C@H](c2ccc(O)c(O)c2)[C@H]1O [(+)-TAXIFOLIN] | 40.1% | 40 µM | 0.99 mM | 0.248 V | 43.4% | 63.6 µM | > 200 µM | – | – | –
Oc1cc(O)c2c(c1)O[C@H](c1ccc(O)c(O)c1)[C@H](O)C2 [(-)-EPICATECHIN] | 38.1% | 103 µM | 1.05 mM | – | 46.6% | 166 µM | > 250 µM | – | – | –
O=c1cc(-c2ccc(O)cc2)oc2cc(O)cc(O)c12 [APIGENIN] | inactive | – | 0.39 mM | 0.623 V | inactive | – | > 150 µM | Toxic | Toxic | –
O=c1cc(-c2ccccc2)oc2cc(O)cc(O)c12 [CHRYSIN] | inactive | – | 0.16 mM | 0.81 V | inactive | – | > 20 µM | – | – | –
Oc1cc(O)c2c(c1)O[C@H](c1ccc(O)c(O)c1)[C@@H](O)C2 [CIANIDANOL] | 29.8% | > 250 µM | 0.77 mM | 0.285 V | 28.7% | > 250 µM | > 250 µM | – | – | –
O=c1c(-c2ccc(O)cc2)coc2cc(O)ccc12 [DAIDZEIN] | 37.5% | 135 µM | 0.4 mM | 0.596 V | 34.5% | 140 µM | > 200 µM | – | – | Dose-dependent effect
O=C(O[C@@H]1Cc2c(O)cc(O)cc2O[C@@H]1c1cc(O)c(O)c(O)c1)c1cc(O)c(O)c(O)c1 [EPIGALOCATECHIN GALLATE] | 40.2% | 26.2 µM | 2.2 mM | 0.125 V | 54.2% | 6.3 µM | > 200 µM | – | – | Dose-dependent effect
O=c1c(O)c(-c2ccccc2)oc2cc(O)cc(O)c12 [GALANGIN] | 12.4% | > 50 µM | 0.75 mM | 0.354 V | inactive | – | > 50 µM | – | – | –
O=c1c(-c2ccc(O)cc2)coc2cc(O)cc(O)c12 [GENISTEIN] | 17.3% | > 50 µM | 0.33 mM | 0.614 V | inactive | – | > 50 µM | – | – | –
COc1ccc([C@@H]2CC(=O)c3c(O)cc(O)cc3O2)cc1O [HESPERETIN] | 23% | > 150 µM | 0.53 mM | 0.556 V | inactive | – | > 100 µM | – | – | –
COc1cc(-c2oc3cc(O)cc(O)c3c(=O)c2O)ccc1O [ISORHAMNETIN] | 43.8% | 69.3 µM | 1.04 mM | 0.115 V | 41.8% | 90.5 µM | > 200 µM | – | – | Dose-dependent effect
O=c1c(O)c(-c2ccc(O)cc2)oc2cc(O)cc(O)c12 [KAEMPFEROL] | 42.2% | 68.7 µM | 1.08 mM | 0.189 V | 58.6% | 121 µM | > 200 µM | – | – | Dose-dependent effect
O=c1cc(-c2ccc(O)c(O)c2)oc2cc(O)cc(O)c12 [LUTEOLIN] | 24% | > 20 µM | 0.91 mM | 0.269 V | 24.2% | > 20 µM | > 20 µM | – | – | –
O=c1c(O)c(-c2cc(O)c(O)c(O)c2)oc2cc(O)cc(O)c12 [MYRICETIN] | 34.5% | 123 µM | 1.02 mM | 0.115 V | 24.8% | > 150 µM | > 200 µM | – | – | Dose-dependent effect
O=C1C[C@@H](c2ccc(O)cc2)Oc2cc(O)cc(O)c21 [NARINGENIN] | inactive | – | 0.55 mM | 0.71 V | inactive | – | > 200 µM | – | – | –
O=c1c(O)c(-c2ccc(O)c(O)c2)oc2cc(O)cc(O)c12 [QUERCETIN] | 43.6% | 30.8 µM | 1.24 mM | 0.218 V | 46.1% | 14.9 µM | > 75 µM | – | – | Dose-dependent effect
C[C@@H]1O[C@@H](OC[C@H]2O[C@@H](Oc3c(-c4ccc(O)c(O)c4)oc4cc(O)cc(O)c4c3=O)[C@H](O)[C@@H](O)[C@@H]2O)[C@H](O)[C@H](O)[C@H]1O [RUTIN] | 25.2% | > 250 µM | 1.35 mM | 0.306 V | 28.2% | > 200 µM | > 250 µM | – | – | Dose-dependent effect
